Where a name gives a salt, the structure may show the parent alone.

For data set [1], the system named is myeloid blast crisis and lymphoid blast crisis. The note with it: cited from earlier work.
For data set [2] the following is noted: oral; cited from earlier work.
A short description of data set [3]: Stability of imatinib in the LC-MS/MS bioanalytical method validation.
Data set [4] concerns CML. The note with it: CML patients; cited from earlier work.

Regarding `Cc1ccc(NC(=O)c2ccc(CN3CCN(C)CC3)cc2)cc1Nc1nccc(-c2cccnc2)n1` [imatinib mesylate], the “Response rate, lymphoid blast crisis” value in data set [1] (oral 300-1,000 mg/day, 14 out of 20 patients) is 70%. For the same compound, the “Response rate, myeloid blast crisis” value in data set [1] (oral 300-1,000 mg/day, 21 out of 38 patients) is on record as 55%. In addition, in data set [1] (oral 300-1,000 mg/day), the “Complete hematologic response, myeloid blast crisis” value is 19% and the “Complete hematologic responses, lymphoid blast crisis” value is 20%.

Take `Cc1ccc(NC(=O)c2ccc(CN3CCN(C)CC3)cc2)cc1Nc1nccc(-c2cccnc2)n1` [imatinib]: the “Duration of remission from the commencement of therapy” value in data set [1] (responding patients continued on imatinib treatment) is reported as 101 to 349 days. Further, the “Time to attain peak plasma concentration (Cmax)” value in data set [2] was 2 to 4 h. Besides, the “Inter-patient CV, lnAUC0-24” value (ln-transformed AUC0-24) was found to be 25.2%. The “Intra-patient CV, lnAUC0-24” value (ln-transformed AUC0-24, test and reference together) turned out to be 12.3%. Further, the “Inter-patient CV, lnCmax” value (ln-transformed Cmax) was determined as 20.4%. The “Intra-patient CV, lnCmax” value (ln-transformed Cmax, test and reference together) amounted to 13.6%. In data set [3] (2-8°C, ~77 hr, high quality control), the “In-injector stability, % change, HQC” value is recorded as “–5.6%”. Besides, the “In-injector stability, % change, LQC” value in data set [3] (2-8°C, ~77 hr, low quality control) is on record as 4.6%. For the same compound, in data set [3] (3 cycles, high quality control), the “Freeze thaw stability, % change, HQC” value is recorded as “–6.1%”. In addition, the “Freeze thaw stability, % change, LQC” value in data set [3] (3 cycles, low quality control) was 2.2%. Besides, the “Long-term stability, accuracy, HQC” value in data set [3] (70 days, high quality control) stood at 97.4%. Also, the “Long-term stability, accuracy, LQC” value in data set [3] (70 days, low quality control) amounted to 95.7%. In data set [3] (70 days, medium quality control), the “Long-term stability, accuracy, MQC” value was 101.5%. The “Bench top stability, % change, HQC” value in data set [3] (room temperature, ~7 hr, high quality control) was “–7.2%”. The “Bench top stability, % change, LQC” value in data set [3] (room temperature, ~7 hr, low quality control) amounted to 10.2%.

Turning to interferon-α [IFN-α], in data set [4], the Cytogenetic remission was 6%-20%.

The values are drawn from PMC4946363 (Cancer Research and Treatment : Official Journal of Korean …, 2016).
